{
  "source": "patent US20120142015A1",
  "about": "“GFP FUSION PROTEINS AND THEIR USE” (The Board of Trustees of The University of Illinois, priority 2001, published 2012)",
  "key": {"[1]": {"biological_target": "β-adrenergic receptor", "test": "cell-based or functional assay"}, "[2]": {"tested_on": "Gαs-GFP", "type": "cell-based"}, "[3]": {"tested_on": "Gαs-GFP", "type": "cell-based", "remark": "listed apart in the source"}, "[4]": {"details": "living cells transfected with Gαs-GFP"}},
  "data": [
    {"compound": "Gαs-GFP fusion protein (GFP inserted within the internal amino acid sequence of long Gαs)", "values": [
      {"measurement": "percent of cells with internalized Gαs-GFP in response to isoproterenol (20 µM)", "setting": "[1]", "result": 70, "unit": "%"}
    ]},
    {"compound": "cholera toxin", "values": [
      {"measurement": "displacement of Gαs-GFP from the plasma membrane", "setting": "[2]", "result": "gradual displacement of Gαs-GFP from the plasma membrane throughout the cytoplasm"}
    ]},
    {"compound": "CC(C)NCC(O)c1ccc(O)c(O)c1", "note": "(centres unmarked) [isoproterenol]", "values": [
      {"measurement": "cells showing internalized Gαs-GFP in response to isoproterenol", "setting": "[3]; isoproterenol 20 μM, COS cells, 37° C., 58 cells in 15 experiments", "result": "Approximately 70%"},
      {"measurement": "release of Gαs-GFP from plasma membrane into the cytoplasm", "setting": "[3]; [4]", "result": "rapid partial release of Gαs-GFP into the cytoplasm"},
      {"measurement": "time after treatment at which extent of Gαs-GFP release from plasma membrane was maximal", "setting": "[3]; [4]", "result": 1, "unit": "min"}
    ]}
  ]
}
